US20110245179A1, “Composition for Prevention or Treatment of Heart Failure” (priority 2008, published 2011)

Legend:
cardiac myocytes = assay: Measurement of myocardial contractility (video-based edge detection); assay type: cell-based, Sprague-Dawley (SD) rat; conditions: 100 nM for 30 minutes
Source text: The sequence of a peptide inhibitor was designed based on the experiment of Daria Mochly-Rosen^11-13. The amino acid sequences of the protein kinase C ζ (PKCζ) inhibitor are described as SEQ ID NO: 1 and SEQ ID NO: 2. They are called the pseudosubstrate region. In contrast, the amino acid sequence of the PKCα inhibitor is QLVIAN. Each peptide inhibitor is linked at the amino-end with the TAT peptide YGRKKRRQRRR via the GGG bridge. As a normal group for comparison, a peptide comprising the TAT amino acid sequence was used. Cardiac myocytes isolated from 10-week-old Sprague-Dawley (SD) rat were used to test the efficiency of the peptide inhibitor. […]
The cardiac myocytes were isolated based on the modification of the Ren's method^14. 10-week-old male SD rats (250-300 g) were used for the experiment. After injecting heparin (50 unit), the test animal was anesthetized with isoflurane and the heart was taken out immediately. The heart was connected to a pump and Tyrode's buffer [137 mM NaCl, 5.4 mM KCl, 1 mM MgCl2, 10 mM glucose, 10 mM HEPES, 10 mM 2,3-butanedione monoxime and 5 mM taurine (Sigma), pH 7.4] at 37° C. was supplied through the coronary artery. After removing blood from the heart by pumping for 5 minutes, intercellular adhesion molecules were digested by perfusing enzyme solution [collagenase type B (0.35 U/mL, Roche), hyaluronidase (0.1 mg/mL, Sigma)] through the coronary artery. After sufficient digestion through perfusion for 20 minutes, the heart was stabilized and protected from the enzymes in 0.5% BSA solution. In all the experiments, only the rod-shaped, healthy cardiac myocytes with a distinct striation pattern were used.
The entire culture procedure was carried out in a class II flow hood. Culture dishes were precoated for 1 hour with 40 µg/mL mouse laminin (BD Biosciences) at room temperature. The isolated cardiac myocytes were cultured in Dulbecco's minimal essential medium (HyClone) containing 50 units/mL penicillin, 50 μg/mL streptomycin, 5 mM taurine, […] and […]. The cardiac myocytes were stabilized for 2 hours in a 5% CO2 incubator at 37° C., and then myocardial contractility was measured.
Myocardial contractility was measured using a video-based edge detection system (IonOptix; Milton, Mass.)^15. The cultured cardiac myocytes were placed on a over slip and observed under an inverted microscope (Nikon Eclipse TE-100F). To the cardiac myocytes, Tyrode's buffer (137 mM NaCl, 5.4 mM KCl, 1 mM MgCl2, 10 mM glucose and 10 mM HEPES, pH 7.4) was continuously supplied (at 37° C., at a rate of ˜1 mL/min). The cells were stimulated with a voltage of 30 V at 1 Hz. A STIM-AT stimulator/thermostat was used. […] The motion was recorded at every 8.3 ms. The recorded motion of the cardiac myocytes was analyzed with the soft-edge software (IonOptix).

PKCβ = PKCβ (Homo sapiens, UniProt P05771); conditions: cited from earlier work
PKCβ, sequence (P05771 whole entry, species assumed): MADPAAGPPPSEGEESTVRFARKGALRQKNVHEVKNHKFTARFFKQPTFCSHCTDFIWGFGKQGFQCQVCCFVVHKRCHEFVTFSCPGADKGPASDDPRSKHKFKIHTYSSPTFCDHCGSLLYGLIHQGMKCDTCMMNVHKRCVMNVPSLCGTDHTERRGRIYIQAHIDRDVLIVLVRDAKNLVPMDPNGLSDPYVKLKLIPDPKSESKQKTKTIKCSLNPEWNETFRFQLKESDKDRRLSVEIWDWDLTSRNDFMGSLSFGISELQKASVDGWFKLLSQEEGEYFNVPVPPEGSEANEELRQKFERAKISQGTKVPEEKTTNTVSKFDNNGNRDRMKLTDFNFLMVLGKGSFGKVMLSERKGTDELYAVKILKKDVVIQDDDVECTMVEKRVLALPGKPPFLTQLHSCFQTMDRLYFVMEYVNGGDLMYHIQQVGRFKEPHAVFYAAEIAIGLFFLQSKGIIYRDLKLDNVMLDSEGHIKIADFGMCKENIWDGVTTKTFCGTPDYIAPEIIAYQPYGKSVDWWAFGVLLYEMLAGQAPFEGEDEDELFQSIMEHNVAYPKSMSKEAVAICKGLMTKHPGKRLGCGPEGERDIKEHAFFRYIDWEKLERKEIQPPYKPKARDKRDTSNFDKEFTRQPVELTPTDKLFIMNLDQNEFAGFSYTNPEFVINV

PKCδ = PKCδ (Homo sapiens, UniProt Q05655); conditions: cited from earlier work
PKCδ, sequence (Q05655 whole entry): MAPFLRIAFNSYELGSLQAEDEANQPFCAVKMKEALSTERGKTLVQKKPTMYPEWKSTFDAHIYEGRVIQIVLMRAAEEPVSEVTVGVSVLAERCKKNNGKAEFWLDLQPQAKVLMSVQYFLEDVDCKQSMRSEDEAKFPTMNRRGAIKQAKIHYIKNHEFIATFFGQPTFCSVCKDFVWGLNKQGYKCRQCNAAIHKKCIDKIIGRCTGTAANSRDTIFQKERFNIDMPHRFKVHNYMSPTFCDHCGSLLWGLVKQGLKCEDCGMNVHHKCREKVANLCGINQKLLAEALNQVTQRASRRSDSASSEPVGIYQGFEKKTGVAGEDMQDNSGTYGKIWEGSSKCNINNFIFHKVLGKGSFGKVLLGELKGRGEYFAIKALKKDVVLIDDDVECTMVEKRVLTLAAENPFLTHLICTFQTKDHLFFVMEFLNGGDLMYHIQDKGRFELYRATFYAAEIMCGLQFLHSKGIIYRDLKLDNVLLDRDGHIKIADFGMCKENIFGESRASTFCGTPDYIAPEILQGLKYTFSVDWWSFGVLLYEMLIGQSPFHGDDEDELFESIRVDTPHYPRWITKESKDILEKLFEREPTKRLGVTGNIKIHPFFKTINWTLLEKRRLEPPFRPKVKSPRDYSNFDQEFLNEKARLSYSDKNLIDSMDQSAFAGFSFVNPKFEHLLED

PKCζ = target: T1, PKCζ (Homo sapiens, UniProt Q05513); conditions: cited from earlier work
T1 sequence (Q05513 1-592): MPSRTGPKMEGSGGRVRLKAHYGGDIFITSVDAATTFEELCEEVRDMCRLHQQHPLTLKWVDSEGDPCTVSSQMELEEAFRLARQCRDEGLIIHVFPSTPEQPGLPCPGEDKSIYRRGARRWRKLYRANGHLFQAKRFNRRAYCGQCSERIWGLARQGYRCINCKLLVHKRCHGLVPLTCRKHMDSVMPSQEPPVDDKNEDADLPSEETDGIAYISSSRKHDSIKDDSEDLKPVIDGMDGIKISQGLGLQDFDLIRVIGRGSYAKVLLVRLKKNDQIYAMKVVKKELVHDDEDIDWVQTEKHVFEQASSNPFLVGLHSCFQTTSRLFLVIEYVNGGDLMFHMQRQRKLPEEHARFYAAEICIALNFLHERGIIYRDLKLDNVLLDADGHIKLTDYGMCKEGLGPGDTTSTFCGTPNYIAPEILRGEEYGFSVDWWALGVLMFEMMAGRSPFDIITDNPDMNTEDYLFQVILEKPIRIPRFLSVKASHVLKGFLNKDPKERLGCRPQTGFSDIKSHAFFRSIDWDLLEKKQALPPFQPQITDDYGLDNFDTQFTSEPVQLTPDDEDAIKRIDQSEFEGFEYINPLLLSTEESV

SMILES | increase of maximal rate of contraction (cardiac myocytes) [times] | increase of maximal rate of relaxation (cardiac myocytes) [times] | increased maximal myocardial contractility as compared to the normal group (cardiac myocytes) | IC50 (PKCβ) [µM] | IC50 (PKCδ) [µM] | other results
CN1CCN(c2cccc3[nH]c(-c4n[nH]c5cc(-c6ccc(CN)cc6)ccc45)nc23)CC1 [Chemical Formula X] | 1.2 | 1.2 | about 1.4 times |  |  | 
CN1CCN(Cc2c3ccccc3cc3ccccc23)CC1 [Chemical Formula III, 1-(anthracen-9-ylmethyl)-4-methyl-piperazine] |  |  |  | 50 | > 100 | IC50 (PKCζ): 25 µM
CCOC(=O)c1c(NC(C)=O)sc(/C(C)=N/O)c1-c1ccccc1 [Chemical Formula II, ethyl (5E)-2-acetylimino-5-[1-(hydroxyamino)ethylidene]-4-phenyl-thiophene-3-carboxylate] |  |  |  | > 100 | > 100 | 
CN1CCN(c2cccc3[nH]c(-c4n[nH]c5cc(-c6ccc(N)cc6)ccc45)nc23)CC1 [Chemical Formula IX] | ≥ 2 | ≥ 2 | about 2.4 times |  |  | 
CCOC(=O)c1c(NC(=S)N2CCN(S(C)(=O)=O)CC2)sc(C)c1-c1ccccc1 [Chemical Formula IV] |  |  |  |  |  | inhibitory effect relative to that of the compound of Chemical Formula II (PKCζ; tested at 100 μM): about 1.2 times
